Assay results reported in patent US11046697B2, “Compounds and compositions useful for treating disorders related to NTRK” (BLUEPRINT MEDICINES CORPORATION, priority 2015, dated 2021).
Where two headings read alike, the source gives them in different places.

Columns and labels:
wild type NTRK1 enzyme = target: T1, wild type NTRK1 enzyme (Homo sapiens, UniProt P04629); assay: NTRK1 Wild Type Assay at 1 mM ATP; format: biochemical
T1 construct: purchased BPS Bioscience 40280
Experimental: NTRK1 Wild Type Assay at 1 mM ATP
The reaction was stopped by the addition of 70 μL of Stop buffer (100 mM HEPES pH 7.5, 0.015% Brij 35, 35 mM EDTA and 0.2% of Coating Reagent 3 (Caliper Lifesciences)). The plate was then read on a Caliper EZReader 2 (protocol settings: −1.7 psi, upstream voltage −500, downstream voltage −3000, post sample sip 35s).

[1] = tested on: KM12 Cliff (G595R) cell line; assay: NTRK G595R mutant cellular assay (CellTiter-Glo growth inhibition); format: cell-based; settings: for IC50: 72 hr, CellTiter-Glo
Summary of the method: (§1)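 KM12 (TPM3-NTRK1 fusion) or KM12 Cliff (G595R) cells at 1000 cells/well in 10% FBS media were dosed with compounds at varying concentrations in duplicate after overnight plating.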

[2] = tested on: KM12 wild type colon carcinoma cell line harboring the TPM3-NTRK1 fusion protein; assay: NTRK wild type cellular assay (CellTiter-Glo growth inhibition); format: cell-based; settings: for IC50: 72 hr, CellTiter-Glo, read-out: KM12 (WT) IC50
Summary of the method: as §1

[3] = 1 mM ATP, read-out: Enz NTRK1 IC50

T1 sequence (P04629 440-796 limits assumed): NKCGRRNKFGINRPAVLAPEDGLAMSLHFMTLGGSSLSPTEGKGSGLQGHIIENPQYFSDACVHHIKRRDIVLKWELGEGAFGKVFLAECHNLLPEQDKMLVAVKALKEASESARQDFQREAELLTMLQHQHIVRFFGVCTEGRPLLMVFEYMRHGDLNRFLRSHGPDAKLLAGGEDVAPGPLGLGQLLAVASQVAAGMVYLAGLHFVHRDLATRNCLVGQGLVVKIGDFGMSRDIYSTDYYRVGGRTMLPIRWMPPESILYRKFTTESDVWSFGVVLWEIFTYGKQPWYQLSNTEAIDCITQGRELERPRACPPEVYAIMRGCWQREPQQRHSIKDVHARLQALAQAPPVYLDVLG

| Structure (SMILES) | IC50 (wild type NTRK1 enzyme; [3]) [nM] | IC50 ([2]; Homo sapiens, KM12, 72 h) [nM] | IC50 [2] [nM] | IC50 (wild type NTRK1 enzyme; wild-type NTRK enzyme, read-out: NTRK wt Enzyme Assay IC50) [nM] | GI50 ([2]; wild-type NTRK fusion cells, read-out: NTRK wt Cellular GI50) [nM] | IC50 ([1]; Homo sapiens, KM12, 72 h) [nM] | IC50 [1] [nM] | GI50 ([1]; G595R mutant NTRK fusion cells) [nM] |
| --- | --- | --- | --- | --- | --- | --- | --- | --- |
| O=C(c1n[nH]c2ncnc(N[C@@H]3CCCC(F)(F)[C@H]3O)c12)N1C[C@@H](F)C[C@@H]1c1cncc(F)c1 [Compound 231] | 10 to 100 | 10 to 100 |  |  |  | 100 to 1000 |  |  |
| CC(C)(O)[C@H]1C[C@@H](O)[C@H](Nc2ncnc3[nH]nc(C(=O)N4C[C@@H](F)C[C@@H]4c4cc(F)ccc4F)c23)C1 [Compound 232, ((2R,4S)-2-(2,5-difluorophenyl)-4-fluoropyrrolidin-1-yl)(4-(((1R,2R,4R)-2-hydroxy-4-(2-hydroxypropan-2-yl)cyclopentyl)amino)-1H-pyrazolo[3,4-d]pyrimidin-3-yl)methanone] | < 10 | < 10 |  |  |  | < 10 |  |  |
| O=C(c1n[nH]c2ncnc(N[C@@H]3C=C[C@@H](O)[C@H]3O)c12)N1C[C@@H](F)C[C@@H]1c1cc(F)ccc1OC(F)F [Compound 235] | < 10 |  | 10 to 100 |  |  |  | 10 to 100 |  |
| O=C(c1n[nH]c2ncnc(N[C@H]3[C@H](O)[C@H](O)[C@@H]4C[C@@H]43)c12)N1C[C@@H](F)C[C@@H]1c1cc(F)ccc1OC(F)F [Compound 239] | < 10 |  | < 10 |  |  |  | 10 to 100 |  |
| O=C(c1n[nH]c2ncnc(NC3CCOCC3O)c12)N1CC(F)CC1c1cc(F)ccc1OC(F)(F)F (stereo not drawn) [Compound 241] | < 10 |  | < 10 |  |  |  | < 10 |  |
| O=C(c1n[nH]c2ncnc(N[C@H]3[C@H](O)[C@H](O)[C@@H]4C[C@@H]43)c12)N1C[C@@H](F)C[C@@H]1c1cc(F)ccc1OC(F)(F)F [Compound 242] | < 10 |  | < 10 |  |  |  | < 10 |  |
| O=C(c1n[nH]c2ncnc(N[C@@H]3COC[C@@H](O)[C@H]3O)c12)N1C[C@@H](F)C[C@@H]1c1cc(F)ccc1OC(F)(F)F [Compound 244] | < 10 | < 10 |  |  |  | < 10 |  |  |
| CC(C)NC(=O)C1CCC(n2c(NC(=O)c3ccc(F)cc3)nc3ccc(CN4CCC(C(C)(C)O)CC4)cc32)CC1 (stereo not drawn) [TSR-011] |  |  |  | 2.3 | 32 |  |  | 12000 |

Further lines, with some results ahead:

| IC50 (wild type NTRK1 enzyme; [3]) [nM] | IC50 ([2]; Homo sapiens, KM12, 72 h) [nM] | IC50 [2] [nM] | IC50 (wild type NTRK1 enzyme; wild-type NTRK enzyme, read-out: NTRK wt Enzyme Assay IC50) [nM] | GI50 ([2]; wild-type NTRK fusion cells, read-out: NTRK wt Cellular GI50) [nM] | Structure (SMILES) | IC50 ([1]; Homo sapiens, KM12, 72 h) [nM] | IC50 [1] [nM] | GI50 ([1]; G595R mutant NTRK fusion cells) [nM] |
| --- | --- | --- | --- | --- | --- | --- | --- | --- |
| < 10 |  | < 10 |  |  | COc1c(F)cc(F)cc1[C@H]1C[C@H](F)CN1C(=O)c1n[nH]c2ncnc(N[C@H]3[C@H](O)[C@H](O)[C@@H]4C[C@@H]43)c12 [Compound 233] |  | < 10 |  |
| < 10 |  | < 10 |  |  | COc1c(F)cc(F)cc1C1CC(F)CN1C(=O)c1n[nH]c2ncnc(NC3CCCC(O)C3O)c12 (stereo not drawn) [Compound 234] |  | < 10 |  |
| < 10 | < 10 |  |  |  | COc1c(F)cc(F)cc1[C@H]1C[C@H](F)CN1C(=O)c1n[nH]c2ncnc(N[C@@H]3COC[C@@H](O)[C@H]3O)c12 [Compound 236] | 10 to 100 |  |  |
| < 10 | 10 to 100 |  |  |  | O=C(c1n[nH]c2ncnc(N[C@@H]3CC[C@@H](O)[C@H]3O)c12)N1C[C@@H](F)C[C@@H]1c1cc(F)ccc1OC(F)F [Compound 237] | 10 to 100 |  |  |
| < 10 | < 10 |  |  |  | O=C(c1n[nH]c2ncnc(N[C@@H]3CC[C@@H](O)[C@H]3O)c12)N1C[C@@H](F)C[C@@H]1c1cc(F)ccc1OC(F)(F)F [Compound 240] | < 10 |  |  |
| < 10 |  | < 10 |  |  | O=C(c1n[nH]c2ncnc(NC3CCCC(O)C3O)c12)N1CC(F)CC1c1cc(F)ccc1OC(F)(F)F (stereo not drawn) [Compound 243] |  | < 10 |  |
